Test results from ChEMBL document CHEMBL1201862, “PubChem BioAssay data set” (2004).
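Assay format: 96-well plates, 48-hour exposure. At the GI50, growth is halved.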 Calls of active or inactive are those of the source. Cut-off read from the data, not from the text of the source: active = GI50 up to about 1.1 µM and inactive = higher.

Experiments:
Test in all cases: DTP human tumour cell line panel, 48 h
786-0 = tested on: 786-0
A549 = tested on: A549
ACHN = tested on: ACHN
CCRF-CEM = tested on: CCRF-CEM
COLO 205 = tested on: COLO 205
DLD-1 = tested on: DLD-1
DMS-114 = tested on: DMS-114
DMS-273 = tested on: DMS-273
EKVX = tested on: EKVX
HCC 2998 = tested on: HCC 2998
HCT-116 = tested on: HCT-116
HCT-15 = tested on: HCT-15
HL-60 = tested on: HL-60
HOP-62 = tested on: HOP-62
HT-29 = tested on: HT-29
IGROV-1 = tested on: IGROV-1
K562 = tested on: K562
KM-20L2 = tested on: KM-20L2
KM12 = tested on: KM12
LOX IMVI = tested on: LOX IMVI
LXFL 529 = tested on: LXFL 529
M14 = tested on: M14
M19-MEL = tested on: M19-MEL
MOLT-4 = tested on: MOLT-4
NCI-H226 = tested on: NCI-H226
NCI-H23 = tested on: NCI-H23
NCI-H460 = tested on: NCI-H460
OVCAR-3 = tested on: OVCAR-3
OVCAR-4 = tested on: OVCAR-4
OVCAR-5 = tested on: OVCAR-5
OVCAR-8 = tested on: OVCAR-8
RPMI-8226 = tested on: RPMI-8226
RXF 393 = tested on: RXF 393
SF-268 = tested on: SF-268
SF-295 = tested on: SF-295
SF-539 = tested on: SF-539
SK-MEL-28 = tested on: SK-MEL-28
SK-MEL-5 = tested on: SK-MEL-5
SK-OV-3 = tested on: SK-OV-3
SN12C = tested on: SN12C
SNB-19 = tested on: SNB-19
SNB-75 = tested on: SNB-75
SNB-78 = tested on: SNB-78
SR = tested on: SR
SW-620 = tested on: SW-620
TK-10 = tested on: TK-10
U-251 = tested on: U-251
UACC-257 = tested on: UACC-257
UACC-62 = tested on: UACC-62
UO-31 = tested on: UO-31
XF498 = tested on: XF498
CAKI-1 = tested on: CAKI-1
HOP-18 = tested on: HOP-18
Malme-3M = tested on: Malme-3M
A498 = tested on: A498
HOP-92 = tested on: HOP-92
NCI-H522 = tested on: NCI-H522
SK-MEL-2 = tested on: SK-MEL-2

## CC1(C)OC2C(CO)OC(N/C(=N/C#N)Oc3ccccc3)C2O1 (centres undefined)
786-0
  GI50: > 10 µM (inactive)
A549
  GI50: > 100 µM (inactive)
ACHN
  GI50: > 100 µM (inactive)
CCRF-CEM
  GI50: > 100 µM (inactive)
COLO 205
  GI50: > 100 µM (inactive)
DLD-1
  GI50: > 100 µM (inactive)
DMS-114
  GI50: > 100 µM (inactive)
DMS-273
  GI50: > 100 µM (inactive)
EKVX
  GI50: > 100 µM (inactive)
HCC 2998
  GI50: > 100 µM (inactive)
HCT-116
  GI50: > 100 µM (inactive)
HCT-15
  GI50: > 100 µM
HL-60
  GI50: > 100 µM (inactive)
HOP-62
  GI50: > 100 µM (inactive)
HT-29
  GI50: > 100 µM (inactive)
IGROV-1
  GI50: > 100 µM (inactive)
K562
  GI50: > 100 µM (inactive)
KM-20L2
  GI50: > 100 µM (inactive)
KM12
  GI50: > 100 µM (inactive)
LOX IMVI
  GI50: > 100 µM (inactive)
LXFL 529
  GI50: > 100 µM (inactive)
M14
  GI50: > 100 µM (inactive)
M19-MEL
  GI50: > 100 µM (inactive)
MOLT-4
  GI50: > 100 µM (inactive)
NCI-H226
  GI50: > 100 µM (inactive)
NCI-H23
  GI50: > 100 µM (inactive)
NCI-H460
  GI50: > 100 µM (inactive)
OVCAR-3
  GI50: > 100 µM (inactive)
OVCAR-4
  GI50: > 100 µM (inactive)
OVCAR-5
  GI50: > 100 µM (inactive)
OVCAR-8
  GI50: > 100 µM (inactive)
RPMI-8226
  GI50: > 100 µM (inactive)
RXF 393
  GI50: > 100 µM (inactive)
SF-268
  GI50: > 100 µM (inactive)
SF-295
  GI50: > 100 µM (inactive)
SF-539
  GI50: > 100 µM (inactive)
SK-MEL-28
  GI50: > 100 µM (inactive)
SK-MEL-5
  GI50: > 100 µM (inactive)
SK-OV-3
  GI50: > 100 µM (inactive)
SN12C
  GI50: > 100 µM (inactive)
SNB-19
  GI50: > 100 µM (inactive)
SNB-75
  GI50: 75.9 µM (inactive)
SNB-78
  GI50: > 100 µM (inactive)
SR
  GI50: > 100 µM (inactive)
SW-620
  GI50: > 100 µM (inactive)
TK-10
  GI50: > 100 µM (inactive)
U-251
  GI50: > 100 µM (inactive)
UACC-257
  GI50: > 100 µM (inactive)
UACC-62
  GI50: > 100 µM (inactive)
UO-31
  GI50: > 100 µM (inactive)
XF498
  GI50: > 100 µM (inactive)

## CC[n+]1c(-c2ccccc2)c2cc(N)ccc2c2ccc(N)cc21
A549
  GI50: 9.57 µM (inactive)
ACHN
  GI50: 22.1 µM (inactive)
CAKI-1
  GI50: 11.8 µM (inactive)
COLO 205
  GI50: 2.12 µM (inactive)
DMS-114
  GI50: 1.29 µM (inactive)
DMS-273
  GI50: 0.481 µM (active)
HCC 2998
  GI50: 2.67 µM (inactive)
HCT-116
  GI50: 2.79 µM (inactive)
HL-60
  GI50: 4.3 µM (inactive)
HOP-18
  GI50: 3.59 µM (inactive)
IGROV-1
  GI50: 1.42 µM (inactive)
K562
  GI50: 2.35 µM (inactive)
KM-20L2
  GI50: 3.91 µM (inactive)
KM12
  GI50: 2.95 µM (inactive)
LXFL 529
  GI50: 0.668 µM (active)
M19-MEL
  GI50: 1.88 µM (inactive)
MOLT-4
  GI50: 1.64 µM (inactive)
Malme-3M
  GI50: 2.24 µM (inactive)
NCI-H23
  GI50: 1.31 µM (inactive)
NCI-H460
  GI50: 3.3 µM (inactive)
OVCAR-3
  GI50: 3.06 µM (inactive)
OVCAR-4
  GI50: 6.68 µM (inactive)
OVCAR-5
  GI50: 29.6 µM (inactive)
SF-295
  GI50: 3 µM (inactive)
SF-539
  GI50: 1.48 µM (inactive)
SN12C
  GI50: 2.51 µM (inactive)
SW-620
  GI50: 2.3 µM (inactive)
UACC-257
  GI50: 2.65 µM (inactive)
UACC-62
  GI50: 1.52 µM (inactive)

## Cc1ncc(CBr)c(CBr)c1O
786-0
  GI50: > 100 µM (inactive)
A498
  GI50: > 100 µM (inactive)
ACHN
  GI50: > 100 µM (inactive)
CAKI-1
  GI50: > 100 µM (inactive)
CCRF-CEM
  GI50: 44.7 µM (inactive)
COLO 205
  GI50: > 100 µM (inactive)
DLD-1
  GI50: > 100 µM (inactive)
DMS-114
  GI50: > 100 µM (inactive)
DMS-273
  GI50: > 100 µM (inactive)
HCC 2998
  GI50: > 100 µM (inactive)
HCT-116
  GI50: > 100 µM (inactive)
HL-60
  GI50: 60.8 µM (inactive)
HOP-62
  GI50: > 100 µM (inactive)
HOP-92
  GI50: > 100 µM (inactive)
IGROV-1
  GI50: > 100 µM (inactive)
K562
  GI50: > 100 µM (inactive)
LXFL 529
  GI50: > 100 µM (inactive)
M14
  GI50: > 100 µM (inactive)
M19-MEL
  GI50: > 100 µM (inactive)
MOLT-4
  GI50: > 100 µM (inactive)
Malme-3M
  GI50: > 100 µM (inactive)
NCI-H226
  GI50: > 100 µM (inactive)
NCI-H23
  GI50: > 100 µM (inactive)
NCI-H522
  GI50: 55.3 µM (inactive)
OVCAR-4
  GI50: > 100 µM (inactive)
RPMI-8226
  GI50: > 100 µM (inactive)
SF-268
  GI50: > 100 µM (inactive)
SF-539
  GI50: > 100 µM (inactive)
SK-MEL-28
  GI50: > 100 µM (inactive)
SK-MEL-2
  GI50: > 100 µM (inactive)
SK-OV-3
  GI50: > 100 µM (inactive)
SN12C
  GI50: > 100 µM (inactive)
SNB-75
  GI50: > 100 µM (inactive)
SNB-78
  GI50: > 100 µM (inactive)
SR
  GI50: > 100 µM (inactive)
UACC-62
  GI50: > 100 µM (inactive)
UO-31
  GI50: 89.1 µM (inactive)
XF498
  GI50: > 100 µM (inactive)

## CC(=O)N/N=C1\CC(C)(C)C2CCC1C2 (centres undefined)
786-0
  GI50: > 100 µM (inactive)
A498
  GI50: > 100 µM (inactive)
A549
  GI50: > 100 µM (inactive)
ACHN
  GI50: > 100 µM (inactive)
CAKI-1
  GI50: > 100 µM (inactive)
CCRF-CEM
  GI50: > 100 µM (inactive)
COLO 205
  GI50: > 100 µM (inactive)
DMS-114
  GI50: > 100 µM (inactive)
DMS-273
  GI50: > 100 µM (inactive)
EKVX
  GI50: > 100 µM (inactive)
HCT-116
  GI50: > 100 µM (inactive)
HCT-15
  GI50: > 100 µM
HL-60
  GI50: > 100 µM (inactive)
HOP-62
  GI50: > 100 µM (inactive)
HOP-92
  GI50: > 100 µM (inactive)
IGROV-1
  GI50: > 100 µM (inactive)
K562
  GI50: > 100 µM (inactive)
KM12
  GI50: > 100 µM (inactive)
LOX IMVI
  GI50: > 100 µM (inactive)
LXFL 529
  GI50: > 100 µM (inactive)
M14
  GI50: > 100 µM (inactive)
M19-MEL
  GI50: > 100 µM (inactive)
MOLT-4
  GI50: > 100 µM (inactive)
Malme-3M
  GI50: > 100 µM (inactive)
NCI-H23
  GI50: > 100 µM (inactive)
NCI-H460
  GI50: > 100 µM (inactive)
NCI-H522
  GI50: > 100 µM (inactive)
OVCAR-3
  GI50: > 100 µM (inactive)
OVCAR-4
  GI50: > 100 µM (inactive)
OVCAR-5
  GI50: > 100 µM (inactive)
OVCAR-8
  GI50: > 100 µM (inactive)
RPMI-8226
  GI50: > 100 µM (inactive)
RXF 393
  GI50: > 100 µM (inactive)
SF-268
  GI50: > 100 µM (inactive)
SF-295
  GI50: > 100 µM (inactive)
SF-539
  GI50: > 100 µM (inactive)
SK-MEL-28
  GI50: > 100 µM (inactive)
SK-MEL-2
  GI50: > 100 µM (inactive)
SK-MEL-5
  GI50: > 100 µM (inactive)
SK-OV-3
  GI50: > 100 µM (inactive)
SN12C
  GI50: > 100 µM (inactive)
SNB-19
  GI50: > 100 µM (inactive)
SNB-75
  GI50: > 100 µM (inactive)
SNB-78
  GI50: > 100 µM (inactive)
SW-620
  GI50: > 100 µM (inactive)
TK-10
  GI50: > 100 µM (inactive)
U-251
  GI50: > 100 µM (inactive)
UACC-257
  GI50: > 100 µM (inactive)
UACC-62
  GI50: > 100 µM (inactive)
UO-31
  GI50: > 100 µM (inactive)
XF498
  GI50: > 100 µM (inactive)
